Assay: oxygen carrying capacity of nutrient formulation
Assay type: physicochemical
Details: F44E formulations compared with the perfluorodecalin nutrient solution of Bell et al., Neurology 37:133, 1987
Description: where m and n or independently at least 1 and m+n equals 6 to 10. Preferably, the double bond is trans. One preferred poly-fluorinated, oxygen-carrying compound is trans-Bis-perfluorobutyl ethylene (m and n each equal 4), which is also known as F44E. F44E formulations have a 25% greater oxygen carrying capacity than that of a prior nutrient solution made with perfluorodecalin, Bell et al., Neurology 37:133, 1987. Formulations comprising F44E are less viscous and relatively easier to perfuse.

greater oxygen carrying capacity than that of a prior nutrient solution made with perfluorodecalin: 25%
SMILES: FC(F)(F)C(F)(F)C(F)(F)C(F)(F)/C=C/C(F)(F)C(F)(F)C(F)(F)C(F)(F)F [F44E, trans-Bis-perfluorobutyl ethylene]
